Measured values as given in patent US6455504B1, “Pesticidal macrolides” (priority 1999, dated 2002).

Experiments:
[1] = test system: Beet Armyworm (Spodoptera littoralis) larvae; assay: Beet Armyworm Topical Assay; assay type: in vivo; conditions: rate 1 ug/larva, 21° C.
Protocol: B. Beet Armyworm (Spodoptera littoralis) Topical Assay.
An additional measure of the relative insecticidal activities of the formula 1 compounds was generated by using a 1 μg/μL methanol solution of each compound applied at 1 μL per larva of laboratory-reared Spodoptera littoralis, (mean wt of 43 mg). Each compound was applied along the dorsum of each of six larvae. Treated larvae were then held for five days at 21° C., 60% RH in six well plastic culture plates. Larvae were each supplied with a 1 cm^3 of agar-based lepidoptera diet for sustenance during the 5-day post-exposure interval. Percent mortality was determined at the end of a five day period.

[2] = test system: Tobacco Budworm (Heliothis virescens) neonate larvae; assay: Tobacco Budworm Neonate Drench Assay; assay type: in vivo; conditions: rate 50 ppm, 27° C.
Protocol: A. Tobacco Budworm (Heliothis virescens) Neonate Drench Assay.
To compare insecticidal activities of formula 1 compounds in neonate (<6 hr post-eclosion) larval Heliothis virescens, 1 μg/μL acetone solutions of each of the metabolites were first prepared. The acetone solutions were then diluted with Millipore H2O containing 0.025% Triton X-100 surfactant to yield treatments of 25 or 50 ppm. One milliliter of either concentration of each metabolite was then pipetted directly over and onto a 100-mm diameter #1 Whatman qualitative filter paper circle upon which 20 tobacco budworm neonate larvae had been gently placed. Each treated filter paper and its associated larvae was then placed in a 20 mm×100 mm disposable plastic petri plate. One-hour later, a 1 cm^3 portion of agar-based lepidoptera diet (modified Shorey diet, Southland Products, Lake Village, Ariz.) was placed into each plate as a larval food source. The petri plate were held at 27° C. for 24 hr and then percent larval mortality in each treatment was determined.

adult stable fly = assay: In vivo Mouse/Adult Stable Fly (ASF) Assay; design: species or system adult stable fly fed on mice (Mus musculus); conditions: mice dosed 100 mg/kg, orally or topically
Protocol: On Study Day 0, six, thirty-gram, white laboratory mice (Mus musculus) (8-10 week old, ICR females, Harlan-Sprague-Dawley, Inc., Indianapolis, Ind.) per treatment were dosed with test article or solvent (90% ethyl oleate/10% DMSO), either orally or topically. On Study Day 1, two mice from each treatment were anesthetized with a 0.25 mL intramuscular injection of a combination of 1.0 mL ketamine (Fort Dodge, Ketaset®, ketamine HCl injection, 100 mg/mL) and 1.0 mL xylazine (Bayer, Rompun®, 20 mg/mL injectable) in 4.5 mL sterile water. The anesthetized mice were placed in the fly boxes containing 30 adult stable fly. The anesthetized mice were left in the boxes for up to 60 minutes and the flies allowed to obtain a blood meal undisturbed. After removal from the fly boxes, the unconscious mice were immediately euthanized with CO2. The fly boxes were exposed to a 12-our day/12-hour night cycle for the entire study period. The temperature in the assay room was 68-72° F. and the humidity was 50-60%. These procedures were repeated exactly on Study Days 2 and 3 with the remaining treated mice. Each day the number of dead flies was recorded and fly boxes discarded. Total percent fly mortality was determined for each treatment and compared to fly mortality of continuously fed ASF and ASF fed on solvent treated control mice.

[3] = test system: larval ticks (Amblyomma americannum); assay: In vitro Tick Larval Packet Test (LPT) Assay; conditions: 24 hours
Protocol: Titrated levels of experimental compounds were dissolved in a combination of olive oil and trichloroethylene and pipetted onto squares of laboratory filter paper. After allowing about an hour for the trichloroethylene to evaporate, the filter papers were folded in half and two sides secured with clamps, forming packets.
Approximately, 100 larval ticks (Amblyomma americannum) were placed inside each packet and the remaining open side secured with a clamp. The packets were incubated for 24 hours at approximately 72° F. and 95% humidity. Each packet was opened separately and the number of live and dead larvae determined. Percent mortality was determined for each compound.

[4] = test system: adult stable flies (Stomoxys calcitrans); assay: In vitro Adult Stable Fly Assay
Protocol: Dental wicks were saturated with serum containing titrated levels of experimental compounds starting at 100 ppm. The dental wicks were placed in petri dishes along with 10 adult stable flies (Stomoxys calcitrans) previously chilled for easier handling. Percent mortality was determined after 24 and 48 hours incubation at approximately 25° C. and 75-85% humidity when compared to a dish containing a wick with control serum only.

[5] = test system: larval blowfly (Phormia regina); assay: In vitro Larval Blow Fly Assay; design: key to efficacy by visual inspection for larvae movement: A indicates mortality as indicated by absence of larvae movement; N indicates that larvae movement was observed; conditions: for efficacy by visual inspection for larvae movement: up to 48 hours
Protocol: Filter inserts were placed individually in 96-well mictrotiter plates. Each insert was saturated with bovine serum combined with titrated levels of experimental compounds starting at 100 ppm. Approximately 30 larval blowfly (Phormia regina) were placed each well and the entire plate sealed. The plates were incubated for up to 48 hours incubation at approximately 25° C. and 75-85% humidity after which efficacy was determined by visual inspection of each well for larvae movement. The results of testing compounds 1 and 8 are as follows (both compounds were active above 5 ppm): […]

## CCC=CC1CCCC(OC2CCC(NC)C(C)O2)C(C)C(=O)C2=CC3C(C=CC4CC(OC5OC(C)C(OC)C(OC)C5OC)CC43)C2CC(=O)O1 (stereo not drawn) [Compound 3]
[1]
  Beet Armyworm Topical (120 hr) Mortality (%): 100%

## CCC=CC1CCCC(OC2CCC(N(C)C)C(C)O2)C(C)C(=O)C2=CC3C(C=C(C)C4CC(OC5OC(C)C(OC)C(OC)C5OC)CC43)C2CC(=O)O1 (stereo not drawn) [Compound 7]
[2]
  Tobacco Budworm Neonate Drench (24 hr) Mortality (%): 100%

## CCC=CC1CCCC(OC2CCC(N(C)C)C(C)O2)C(C)C(=O)C2=CC3C(C=CC4C(O)C(OC5OC(C)C(OC)C(OC)C5OC)CC43)C2CC(=O)O1 (stereo not drawn) [Compound 8]
Adult stable fly; Study Day 2
  % mortality Day 2: 46%
Adult stable fly; Study Day 3
  % mortality Day 3: 76%
Adult stable fly; flies fed on Study Day 1
  % mortality Day 1: 13%
Adult stable fly; total percent fly mortality
  % mortality Total: 76%
[3]; 0.05%/500 ppm
  Percent mortality: 12.47%
[3]; 0.1%/1000 ppm
  Percent mortality: 69.87%
[3]; 0.5%/5000 ppm
  Percent mortality: 100%
[4]; 0.1 ppm in serum, 24 hr
  % mortality: 0%
[4]; 0.1 ppm in serum, 48 hr
  % mortality: 0%
[4]; 0.5 ppm in serum, 24 hr
  % mortality: 10%
[4]; 0.5 ppm in serum, 48 hr
  % mortality: 10%
[4]; 1.0 ppm in serum, 24 hr
  % mortality: 30%
[4]; 1.0 ppm in serum, 48 hr
  % mortality: 80%
[4]; 5.0 ppm in serum, 24 hr
  % mortality: 90%
[4]; 5.0 ppm in serum, 48 hr
  % mortality: 100%
[5]; 0.15 ppm in bovine serum
  efficacy by visual inspection for larvae movement: N
[5]; 0.31 ppm in bovine serum
  efficacy by visual inspection for larvae movement: N
[5]; 0.62 ppm in bovine serum
  efficacy by visual inspection for larvae movement: N
[5]; 1.25 ppm in bovine serum
  efficacy by visual inspection for larvae movement: N
[5]; 2.5 ppm in bovine serum
  efficacy by visual inspection for larvae movement: N
[5]; 5 ppm in bovine serum
  efficacy by visual inspection for larvae movement: A
[5]; above 5 ppm (titrated from 100 ppm)
  activity against larval blowfly: active
